Key:
OT-I splenocytes = experiment: OT-I splenocyte culture with purine/pyrimidine pathway compounds; assay type: cell-based, mouse; conditions: added together with N-Acetylneuraminic acid on day 3, analyzed day 5
Procedure: We therefore tested if purine and pyrimidine nucleotides have similar effects as N-Acetylneuraminic acid to help maintain less differentiated phenotypes of T cells during expansion. OT-I splenocytes were cultured with 500 nM […] peptide (OVA257-264) for three days at initial cell density of 1×10^6/mL to activate and expand the CD8+ T cell population. Different concentrations of the products or intermediates in purine or pyrimidine de novo synthesis pathways were added on day 3. The tested compounds include, e.g., guanosine, deoxyguanosine, adenosine, deoxyadenosine, inosine, xanthosine, orotidine, uridine, cytidine, deoxycytidine, thymidine, deoxythymidine, 5-Aminoimidazole-4-carboxamide ribonucleotide (AICAR), orotate, and dihydroorotate. The phenotype of expanded T cells were analyzed on day 5.

OT-1 cells = experiment: OT-I-Tcf7GFP splenocyte screen: proliferation and Tim3−TCF-1+ ratio; assay type: cell-based, mouse; conditions: Day7; for Tim3^−TCF-1^+ ratio of CD8^+ T cells (%): w/o 2.6
Procedure: Cell number was recorded on day 3 and day 7. On day 7, cells were stained with anti-CD8a (PerCP-Cy5.5) and anti-Tim3 (BV421) antibodies for flow cytometry or plate reader analysis.
Because TCF1 expression positively correlates with T cell stemness, the greater signal of EGFP a T cell expresses, the less differentiated the T cell is. Furthermore, if the compound also facilitates T cells proliferation, there would be more T cells per well in comparison to the untreated control. Therefore, a compound that not only maintains TCF-1 expression but also facilitates T cell growth would produce the strongest green fluorescence intensity. […] GlcA stands for glucuronic acid.

P14 cells = experiment: P14 splenocyte in vitro activation, re-stimulation and expansion; assay type: cell-based, mouse; conditions: for Fold of proliferation, Normalized to W/O: P14 cells
B16-OVA tumor = assay type: in vivo, mouse
Procedure: (§1) Naïve splenocytes from OT-1 mice were stimulated in vitro with OVA257-264 (500 nM) and IL-2 (60 IU/mL) in the presence or absence of an added compound for 3 days at a density of 1 million/mL (100 uL/well in 96/well plate), then expanded for 4 days. On day 7, PD-1, Tim3 and TCF-1 expressions were assessed by flow cytometry by staining cells with anti-CD8a (PerCP-Cy5.5), anti-Tim3 (BV421) and anti-TCF-1 (AF488) antibodies. For adoptive transfer, 0.6M B16-OVA cells (6×10^5) were inoculated subcutaneously 3 to 5 days before transfer in C57BL/6. On the day of adoptive transfer, mice were irradiated with 5 Gy X-ray, randomized according to tumor size, and intravenously injected with 0.2-0.3M of CD8+OT-1 T cells (2×10^5) expanded under different conditions, followed by administration of 50000 IU IL-2 every 12 h for four days. In the control group, mice were injected with cell-free vehicle only. For assessment of adoptive transfer of OT-1 CD8+ T cells activated and expanded by contacting the cells with fructose, on day 9 after transfer, anti-PD-1 (100 ug/mouse) was administered to the mice that had received T cell transfer. For assessment of adoptive transfer of OT-1 CD8+ T cells activated and expanded by contacting cells with Neu5Ac, on day 14 and day 21 after transfer, anti-PD-1 (100 ug/mouse) was administered to the mice that had received T cell transfer. The tumor growth was monitored every 3 to 4 days by measuring tumor size. Percent survival was also monitored and recorded within a period of 40 days post treatment. To evaluate tumor infiltrating OT-1 T cells, 0.6M B16-OVA cells (6×10^5) were inoculated subcutaneously 3 to 5 days before transfer in C57BL/6. On the day of adoptive transfer, mice were irradiated with 5 Gy X-ray, randomized according to tumor size, and intravenously injected with 0.2-0.3M of CD8+OT-1 T cells (2×10^5) expanded under different conditions, followed by administration of 50000 IU IL-2 every 12 h for four days. Tumors were then isolated and assessed for percentage of OT-I T cells from the total CD8+ T cells and OT-1 T cell number per gram of tumor tissue. To evaluate apoptosis, Naïve OT-1 splenocytes were stimulated by OVA257-264 (500 nM) without IL-2 in the presence of absence of sugars for 5 days followed by using Annexin V Apoptosis detection kit (Biolegend). […] To evaluate other cellular characteristics, naïve OT-1 splenocytes were stimulated by OVA257-264 (500 nM) with IL-2 (60 IU/mL) in the presence or absence of sugars for 7 or 8 days. On day 7 or 8 cells were taken and analyzed by assessment of ROS, NADPH/NADP+ ratio, and GSH/GSSG ratio.

P14 CD8+ T cells = assay type: in vivo, mouse; conditions: 14 dpi LCMV-Cl13; cells treated in vitro, vs untreated
OT-1 CD8+ T cells = experiment: OT-1 splenocyte activation and expansion, day 7 flow cytometry; assay type: cell-based, mouse
Procedure: Naïve splenocytes from OT-1 mice were stimulated in vitro with OVA257-264 (500 nM) and IL-2 (60 IU/mL) in the presence or absence of an added compound for 3 days at a density of 1 million/mL (100 uL/well in 96/well plate), then expanded for 4 days. On day 7, PD-1, Tim3 and TCF-1 expressions were assessed by flow cytometry by staining cells with anti-CD8a (PerCP-Cy5.5), anti-Tim3 (BV421) and anti-TCF-1 (AF488) antibodies. For adoptive transfer, 0.6M B16-OVA cells (6×10^5) were inoculated subcutaneously 3 to 5 days before transfer in C57BL/6. On the day of adoptive transfer, mice were irradiated with 5 Gy X-ray, randomized according to tumor size, and intravenously injected with 0.2-0.3M of CD8+OT-1 T cells (2×10^5) expanded under different conditions, followed by administration of 50000 IU IL-2 every 12 h for four days. In the control group, mice were injected with cell-free vehicle only. For assessment of adoptive transfer of OT-1 CD8+ T cells activated and expanded by contacting the cells with fructose, on day 9 after transfer, anti-PD-1 (100 ug/mouse) was administered to the mice that had received T cell transfer. For assessment of adoptive transfer of OT-1 CD8+ T cells activated and expanded by contacting cells with Neu5Ac, on day 14 and day 21 after transfer, anti-PD-1 (100 ug/mouse) was administered to the mice that had received T cell transfer. The tumor growth was monitored every 3 to 4 days by measuring tumor size. Percent survival was also monitored and recorded within a period of 40 days post treatment. To evaluate tumor infiltrating OT-1 T cells, 0.6M B16-OVA cells (6×10^5) were inoculated subcutaneously 3 to 5 days before transfer in C57BL/6. […] Tumors were then isolated and assessed for percentage of OT-I T cells from the total CD8+ T cells and OT-1 T cell number per gram of tumor tissue. […] On day 7 or 8 cells were taken and analyzed by assessment of ROS, NADPH/NADP+ ratio, and GSH/GSSG ratio.

OT-1 splenocytes [1] = experiment: Apoptosis (Annexin V) and IL-2 production of OT-1 splenocytes stimulated without IL-2; assay type: cell-based, mouse; conditions: OVA257-264 500 nM without IL-2, 5 days
Procedure: as §1

OT-1 splenocytes [2] = experiment: ROS, NADPH/NADP+ ratio and GSH/GSSG ratio of OT-1 splenocytes; assay type: cell-based, mouse; conditions: day 7 or 8, with IL-2; vs T cells not treated with sugar
Procedure: as §1

[3] = test system: MC38 TSA-reactive CD8+ TILs; experiment: Rapid expansion of TSA-reactive CD8+ TILs from MC38 tumors; assay type: cell-based, mouse
Procedure: Sugars were added at the beginning or during the expansion of the TILs, and kept till the end of expansion. On expansion day 9, phenotypes of the expanded T cells were assessed, and the cells were used for adoptive transfer (FIG. 6E). For adoptive transfer, 0.5 million cells (B16-OVA or MC38) were inoculated subcutaneously on each mouse on day 0, Listeria monocytogenes-OVA (LM-OVA) infection 0.5 million CFU/mice on day 1, and blood analysis was recorded on day 7.

TILs from B16-OVA tumor = assay type: cell-based, mouse; conditions: day 7 rapid expansion; vs without sugars
Procedure: TILs from B16-OVA tumor were isolated on day10 after inoculation, and Tim-3^−TCF/GFP^+ and Tim-3^+TCF/GFP^− in tetramer positive population were collected by live cell sorting (FIG. 15A). Phenotype features of Tim-3^−TCF/GFP^+ (FIG. 15B) and Tim-3^+TCF/GFP^− (FIG. 15C) were analyzed on day 7 after rapid expansion with feeder cells (TILs/feeder cell: 1/200) in the presence or absence of sugars.
To investigate which population that sugars mainly changed on T cells, B16-OVA cancer cells (7×10^5 cells) were subcutaneously inoculated into the left or right flank of TCF7^GFP mice expressing an EGFP fluorescent reporter from the endogenous Tcf7 locus, which enable us to track the expression of TCF-1 in live cells.

[4] = Mus musculus, Splenocyte, 168 h, 60 mM, OT-1 cells, read-out: Proliferation fold, Normalized to W/O

NC(=O)c1ncn([C@@H]2O[C@H](COP(=O)(O)O)[C@@H](O)[C@H]2O)c1N [AICAR, 5-Aminoimidazole-4-carboxamide ribonucleotide]
cell proliferation (OT-I splenocytes): without significant impact on cell proliferation

O=C(CO)[C@@H](O)[C@H](O)[C@H](O)CO [Fructose, fructose]
Tim3^−TCF-1^+ ratio of CD8^+ T cells (%) (OT-1 cells; 80 mM): 43.9% | activity at 80000 µM (OT-1 cells; Mus musculus, Splenocyte, 168 h, 80 mM, OT-1 cells, read-out: Proliferation fold, Normalized to W/O): 109% | Fold of proliferation, Normalized to W/O (P14 cells; Day6, 80 mM): 2.10 fold | Tim3^−TCF-1^+ ratio of CD8^+ T cells (%) (P14 cells; Day6, 80 mM, w/o 55.0): 87.9% | Fold of proliferation, Normalized to W/O (P14 cells; Day9, 80 mM): 2.94 fold | Tim3^−TCF-1^+ ratio of CD8^+ T cells (%) (P14 cells; Day9, 80 mM, w/o 3.5): 48.9% | capabilities to control tumor growth (B16-OVA tumor; adoptive transfer of sugar-treated OT-1 T cells, vs untreated T cells): significantly better | percentages and total numbers of expanded virus-specific P14 CD8+ T cells in the spleen and liver (P14 CD8+ T cells): significantly higher

O=C[C@H](O)[C@@H](O)[C@@H](O)[C@H](O)CO [Galactose, galactose]
Fold of proliferation, Normalized to W/O (P14 cells; Day6, 80 mM): 1.59 fold | Tim3^−TCF-1^+ ratio of CD8^+ T cells (%) (P14 cells; Day6, 80 mM, w/o 55.0): 88.9% | Fold of proliferation, Normalized to W/O (P14 cells; Day9, 80 mM): 1.87 fold | Tim3^−TCF-1^+ ratio of CD8^+ T cells (%) (P14 cells; Day9, 80 mM, w/o 3.5): 37.4% | T cell proliferation (OT-1 CD8+ T cells; 80 mM, OT-1 cells): significantly suppressed | percentage of Tim3−TCF-1+ CD8+ T cells (in words) (OT-1 CD8+ T cells; OT-1 cells day 7, compared with fructose or sucrose): increased the percentage of Tim3−TCF-1+ CD8+ T cells but at a lower level

O=C[C@H](O)[C@@H](O)[C@H](O)[C@H](O)C(=O)O [GlcA, glucuronic acid]
Tim3^−TCF-1^+ ratio of CD8^+ T cells (%) (OT-1 cells; 60 mM): 65.3% | activity at 60000 µM (OT-1 cells; [4]): 97%

CC(=O)N[C@H]1C(O)O[C@H](CO)[C@@H](O)[C@@H]1O (stereo partly shown) [GlcNAc, N-Acetylglucosamine]
Tim3^−TCF-1^+ ratio of CD8^+ T cells (%) (OT-1 cells; 60 mM): 28.8% | activity at 60000 µM (OT-1 cells; [4]): 145% | viability and apoptotic characteristics (OT-1 splenocytes [1]; vs T cells not treated with sugar): enhanced viability and differential apoptotic characteristics | production of IL-2 (OT-1 splenocytes [1]; vs no sugar): significantly greater | GSH/GSSG ratio (OT-1 splenocytes [2]): greater | NADPH/NADP+ ratio (OT-1 splenocytes [2]): greater | ROS (OT-1 splenocytes [2]): significantly less | cell surface anti-CLA (Cutaneous Lymphocyte-associated Antigen) staining [3]: significant increase | Fold of proliferation, Normalized to W/O (P14 cells; Day6, 60 mM): 2.47 fold | Tim3^−TCF-1^+ ratio of CD8^+ T cells (%) (P14 cells; Day6, 60 mM, w/o 55.0): 89.2% | Fold of proliferation, Normalized to W/O (P14 cells; Day9, 60 mM): 1.44 fold | Tim3^−TCF-1^+ ratio of CD8^+ T cells (%) (P14 cells; Day9, 60 mM, w/o 3.5): 21.2% | tumor infiltrating OT-1 T cell numbers (B16-OVA tumor; treated T cells transferred to B16-OVA mice): increased | maintenance of progenitor exhausted features of sorted Tim-3-TCF-GFP^+ TILs (TILs from B16-OVA tumor): maintain more Tim-3^−TCF/GFP^+ cells
